Measured values taken from ChEMBL document CHEMBL1201862, “PubChem BioAssay data set” (2004).
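Growth conditions: 96-well plates. Treatment: test compound, 48 hours, 5 concentrations. Analysis: linear interpolation between bracketing concentrations; unreached endpoints set to highest concentration. At the GI50, growth is halved.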 Activity calls are given as the source filed them. Cut-off read from the data, not from the text of the source: active = GI50 up to about 1.1 µM and inactive = higher.

Tests used:
Test in all cases: NCI-60 cell line screen, 48 h
[1] = test system: 786-0
[2] = test system: CCRF-CEM
[3] = test system: HL-60
[4] = test system: HT-29
[5] = test system: KM12
[6] = test system: M14
[7] = test system: NCI-H23
[8] = test system: NCI-H522
[9] = test system: SF-295
[10] = test system: SK-OV-3
[11] = test system: SNB-75
[12] = test system: TK-10
[13] = test system: U-251
[14] = test system: UACC-62
[15] = test system: UO-31
[16] = test system: COLO 205
[17] = test system: Malme-3M
[18] = test system: RPMI-8226
[19] = test system: SN12C
[20] = test system: A498

Row | Structure (SMILES) | GI50 [1] | GI50 [2] | GI50 [3] | GI50 [4] | GI50 [5] | GI50 [6] | GI50 [7] | GI50 [8] | GI50 [9] | GI50 [10] | GI50 [11] | GI50 [12] | GI50 [13] | GI50 [14] | GI50 [15] | GI50 [16] | GI50 [17] | GI50 [18] | GI50 [19] | GI50 [20]
1 | Cc1cc2cc3ccccc3cc2c(=O)[nH]1 | > 10 µM (inactive) | > 10 µM (inactive) | > 10 µM (inactive) | > 10 µM (inactive) | > 10 µM (inactive) | > 10 µM (inactive) | > 10 µM (inactive) | > 10 µM (inactive) | > 10 µM (inactive) | > 10 µM (inactive) | > 10 µM (inactive) | > 10 µM (inactive) | > 10 µM (inactive) | > 10 µM (inactive) | > 10 µM (inactive) | – | – | – | – | –
2 | NCCSC1(O)C(=O)c2ccccc2-c2ccccc21 (configuration not stated) | 1.63 µM (inactive) | 0.158 µM (active) | 1.09 µM (active) | 1.21 µM (inactive) | 1.63 µM (inactive) | 1.02 µM (active) | 0.143 µM (active) | 1.55 µM (inactive) | < 0.01 µM (active) | 1.63 µM (inactive) | 0.553 µM (active) | 1.73 µM (inactive) | 0.713 µM (active) | 1.64 µM (inactive) | 1.47 µM (inactive) | 1.85 µM (inactive) | 1 µM (active) | 0.0348 µM (active) | 1.36 µM (inactive) | –
3 | COC(=O)c1ccc(/C=C2\Oc3ccccc3C2=O)cc1 | > 100 µM (inactive) | 58.1 µM (inactive) | 16.4 µM (inactive) | > 100 µM (inactive) | > 100 µM (inactive) | > 100 µM (inactive) | > 100 µM (inactive) | 32.1 µM (inactive) | > 100 µM (inactive) | > 100 µM (inactive) | > 100 µM (inactive) | > 100 µM (inactive) | > 100 µM (inactive) | > 100 µM (inactive) | > 100 µM (inactive) | > 100 µM (inactive) | – | > 100 µM (inactive) | > 100 µM (inactive) | –
4 | Oc1cccc2c1NC1=C(CCC/C1=C\c1ccccc1)C2 | > 100 µM (inactive) | 37.3 µM (inactive) | 40.1 µM (inactive) | 49.8 µM (inactive) | > 100 µM (inactive) | 33.5 µM (inactive) | 58.2 µM (inactive) | 11 µM (inactive) | 71.8 µM (inactive) | > 100 µM (inactive) | – | > 100 µM (inactive) | 69 µM (inactive) | – | 51.2 µM (inactive) | > 100 µM (inactive) | > 100 µM (inactive) | 52 µM (inactive) | > 10 µM (inactive) | –
5 | CCOC(=O)C(C)(C)Oc1ccc2c(-c3ccc(Cl)cc3)c(-c3ccc(Cl)cc3)c(=O)oc2c1 | > 100 µM (inactive) | > 100 µM (inactive) | 68.7 µM (inactive) | > 100 µM (inactive) | – | > 100 µM (inactive) | > 100 µM (inactive) | – | > 100 µM (inactive) | – | > 100 µM (inactive) | > 100 µM (inactive) | > 100 µM (inactive) | > 100 µM (inactive) | > 100 µM (inactive) | > 100 µM (inactive) | > 100 µM (inactive) | 80 µM (inactive) | > 100 µM (inactive) | > 100 µM (inactive)
6 | NC1CC(=O)c2cc(Cl)sc21 (configuration not stated) | > 100 µM (inactive) | > 100 µM (inactive) | > 100 µM (inactive) | > 100 µM (inactive) | > 100 µM (inactive) | > 100 µM (inactive) | > 100 µM (inactive) | > 100 µM (inactive) | > 100 µM (inactive) | > 100 µM (inactive) | > 100 µM (inactive) | > 100 µM (inactive) | > 100 µM (inactive) | > 100 µM (inactive) | > 100 µM (inactive) | > 100 µM (inactive) | > 100 µM (inactive) | – | > 100 µM (inactive) | –
7 | Cc1cc2c(=O)cc(-c3ccncc3)oc2c(C(=O)O)c1C | > 100 µM (inactive) | > 100 µM (inactive) | > 100 µM (inactive) | > 100 µM (inactive) | – | – | > 100 µM (inactive) | – | > 100 µM (inactive) | > 100 µM (inactive) | > 100 µM (inactive) | > 100 µM (inactive) | > 100 µM (inactive) | > 100 µM (inactive) | > 100 µM (inactive) | > 100 µM (inactive) | > 100 µM (inactive) | > 100 µM (inactive) | > 100 µM (inactive) | –
8 | COc1ccc(C(C)NNC(=O)c2ccncc2)cc1OC (configuration not stated) | > 100 µM (inactive) | > 100 µM (inactive) | > 100 µM (inactive) | > 100 µM (inactive) | > 100 µM (inactive) | > 100 µM (inactive) | > 100 µM (inactive) | – | > 100 µM (inactive) | 26.4 µM (inactive) | > 100 µM (inactive) | > 100 µM (inactive) | > 100 µM (inactive) | > 100 µM (inactive) | > 100 µM (inactive) | > 100 µM (inactive) | > 100 µM (inactive) | > 100 µM (inactive) | > 100 µM (inactive) | > 100 µM (inactive)
9 | Nc1ccccc1N/C(=C\C(=O)C(Cl)(Cl)Cl)c1ccccc1 | 20.4 µM (inactive) | 30.2 µM (inactive) | 20.5 µM (inactive) | 27.4 µM (inactive) | 33.6 µM (inactive) | 20.1 µM (inactive) | 30.3 µM (inactive) | 15.3 µM (inactive) | 36.6 µM (inactive) | 88.5 µM (inactive) | 37.8 µM (inactive) | 65 µM (inactive) | 16.8 µM (inactive) | 17.5 µM (inactive) | 17.2 µM (inactive) | 27.9 µM (inactive) | 16.8 µM (inactive) | 23.1 µM (inactive) | 20.1 µM (inactive) | –
10 | Cc1ccc(NC(=O)CC(=O)n2nc(-c3ccccc3)c(/N=N/c3ccc(Cl)cc3)c2-c2ccccc2)cc1 | 21.1 µM (inactive) | 24.4 µM (inactive) | 0.221 µM (active) | 17.9 µM (inactive) | 36.5 µM (inactive) | > 100 µM (inactive) | 58.1 µM (inactive) | – | 58.9 µM (inactive) | 27.5 µM (inactive) | 22.6 µM (inactive) | 22.3 µM (inactive) | – | > 100 µM (inactive) | > 100 µM (inactive) | 35 µM (inactive) | > 100 µM (inactive) | 23.3 µM (inactive) | 31.6 µM (inactive) | > 100 µM (inactive)
11 | CCCN1CC=C(c2cc(C(=O)OCC)[nH]c2-c2cc(C)no2)C1=O | > 100 µM (inactive) | 89.3 µM (inactive) | > 100 µM (inactive) | > 100 µM (inactive) | > 100 µM (inactive) | > 100 µM (inactive) | > 100 µM (inactive) | – | > 100 µM (inactive) | > 100 µM (inactive) | 30.8 µM (inactive) | – | > 100 µM (inactive) | > 100 µM (inactive) | 89.7 µM (inactive) | > 100 µM (inactive) | > 100 µM (inactive) | 75 µM (inactive) | > 100 µM (inactive) | > 100 µM (inactive)
12 | CCC(=N\NC(N)=S)/C(C)=N/O | > 100 µM (inactive) | – | – | > 100 µM (inactive) | > 100 µM (inactive) | > 100 µM (inactive) | > 100 µM (inactive) | – | > 100 µM (inactive) | > 100 µM (inactive) | – | > 100 µM (inactive) | > 100 µM (inactive) | > 100 µM (inactive) | 62.1 µM (inactive) | > 100 µM (inactive) | > 100 µM (inactive) | > 100 µM (inactive) | > 100 µM (inactive) | –
13 | N#Cc1ccc(Nc2cnc3ccc(N)cc3n2)cc1 | > 100 µM (inactive) | > 100 µM (inactive) | > 100 µM (inactive) | > 100 µM (inactive) | > 100 µM (inactive) | > 100 µM (inactive) | > 100 µM (inactive) | > 100 µM (inactive) | > 100 µM (inactive) | > 100 µM (inactive) | > 100 µM (inactive) | > 100 µM (inactive) | > 100 µM (inactive) | > 100 µM (inactive) | > 100 µM (inactive) | > 100 µM (inactive) | > 100 µM (inactive) | > 100 µM (inactive) | > 100 µM (inactive) | –
14 | N=c1oc2ccc3ccccc3c2cc1-c1nc(O)c2ccccc2n1 | 24.3 µM (inactive) | – | 8.73 µM (inactive) | 13 µM (inactive) | 11 µM (inactive) | 25.9 µM (inactive) | – | 3.27 µM (inactive) | 30.2 µM (inactive) | 19.9 µM (inactive) | 2.44 µM (inactive) | 21 µM (inactive) | 19.2 µM (inactive) | 12.8 µM (inactive) | 3.23 µM (inactive) | > 100 µM (inactive) | 23.4 µM (inactive) | 42.6 µM (inactive) | 74 µM (inactive) | –
15 | OC1CN(OC/C=C/c2ccccc2)CC(O)C1O (configuration not stated) | 21.1 µM (inactive) | > 100 µM (inactive) | > 100 µM (inactive) | > 100 µM (inactive) | 72.3 µM (inactive) | > 100 µM (inactive) | > 100 µM (inactive) | – | > 100 µM (inactive) | > 100 µM (inactive) | > 100 µM (inactive) | > 100 µM (inactive) | > 100 µM (inactive) | > 100 µM (inactive) | > 100 µM (inactive) | > 100 µM (inactive) | > 100 µM (inactive) | 44.3 µM (inactive) | > 100 µM (inactive) | > 100 µM (inactive)
16 | COc1c2c(cc3c1C(=O)c1c(O)cccc1C3=O)CC(O)CC2 (configuration not stated) | 25.6 µM (inactive) | > 100 µM (inactive) | > 100 µM (inactive) | > 100 µM (inactive) | > 100 µM (inactive) | 32 µM (inactive) | 20.1 µM (inactive) | – | 19.2 µM (inactive) | 21.5 µM (inactive) | 34.8 µM (inactive) | 50.5 µM (inactive) | 50.9 µM (inactive) | 28.5 µM (inactive) | 56.9 µM (inactive) | > 100 µM (inactive) | 49.8 µM (inactive) | – | > 100 µM (inactive) | 22.8 µM (inactive)
